According to patent US20240409585A1, “MACROCYCLIC IMMUNOMODULATORS” (priority 2021, published 2024):
Bridge positions count the residues as written; N and C are the ends. Square brackets hold non-standard residues; d marks the D form. Peptide text beside a SMILES is read from it. * marks the point of attachment. ξ: configuration not given here. Phe(4-COOH) = N[C@@H](Cc1ccc(C(=O)O)cc1)C(=O)O; Bip = N[C@@H](Cc1ccc(-c2ccccc2)cc1)C(=O)O; Phe(3-CN) = N#Cc1cccc(C[C@H](N)C(=O)O)c1; Phe(3-F) = N[C@@H](Cc1cccc(F)c1)C(=O)O; Phe(3-Me) = Cc1cccc(C[C@H](N)C(=O)O)c1; Val(3-OH) = CC(C)(O)[C@H](N)C(=O)O; 2Thi = N[C@@H](Cc1cccs1)C(=O)O; Cha = N[C@@H](CC1CCCCC1)C(=O)O; Cit = NC(=O)NCCC[C@H](N)C(=O)O; Ile(3ξ) = CCC(C)[C@H](N)C(=O)O; Thr(3ξ) = CC(O)[C@H](N)C(=O)O; ξ4Pal = NC(Cc1ccncc1)C(=O)O; ξCha = NC(CC1CCCCC1)C(=O)O; dDab = NCC[C@@H](N)C(=O)O; Carboxymethyl = O=C(O)C*; NMeA = CN[C@@H](C)C(=O)O; Orn = NCCC[C@H](N)C(=O)O; Dab = NCC[C@H](N)C(=O)O; Dap = NC[C@H](N)C(=O)O; Ac3c = NC1(C(=O)O)CC1; NH(CH2)3NH2 = NCCCN*

Biological target: T1, PE-labeled human PD-L1-Ig binding to Jurkat cell line over-expressing human PD-1 (Jurkat-PD-1) (Homo sapiens, UniProt Q15116)
T1 construct: expressed in transfected cells; host or cells: Jurkat
Assay: Jurkat-PD-1 Cell Binding High-Content Screening Assay (CBA): Method 1
Settings: Jurkat HPDL1 PD1 IC50 (uM) (Method 1), Jurkat-hPD-1 cells, PE-labeled PD-L1-Ig 20 nM final

T1 sequence (Q15116 25-288): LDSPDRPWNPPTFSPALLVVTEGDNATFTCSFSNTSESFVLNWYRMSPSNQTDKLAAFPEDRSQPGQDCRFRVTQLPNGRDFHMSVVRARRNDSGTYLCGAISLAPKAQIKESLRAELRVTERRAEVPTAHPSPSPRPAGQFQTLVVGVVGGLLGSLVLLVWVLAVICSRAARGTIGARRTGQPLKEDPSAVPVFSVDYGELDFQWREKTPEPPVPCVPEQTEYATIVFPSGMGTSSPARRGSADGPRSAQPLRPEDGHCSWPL

Molecule `Cc1cccc(C[C@@H]2NC(=O)[C@H](CC(=O)O)NC(=O)[C@H](Cc3ccccc3)NC(=O)[C@H](CN)NC(=O)CSC[C@@H](C(=O)N[C@@H](C)C(N)=O)NC(=O)[C@H](CO)NC(=O)[C@H](Cc3ccccc3)NC(=O)[C@H](CC(C)C)NC(=O)[C@H](CC(N)=O)NC(=O)[C@@H](CC(C)C)NC(=O)[C@H](C)N(C)C(=O)[C@H](Cc3ccccc3)NC(=O)[C@H](Cc3ccc(-c4ccccc4)cc3)NC(=O)[C@H](CC(C)C)NC2=O)c1` [Compound 1594] ({CH2CO}-[Dap]FD[Phe(3-Me)]L[Bip]F[NMeA][dL]NLFSCA-NH2; thioether N-14) has an IC50 of 0.01 µM.

Same assay, conditions: Jurkat-PD-1 cells, PE-labeled PD-L1-Ig; μM; read-out: CBA Method 1 μM

For `CCC(C)[C@@H]1NC(=O)[C@H](Cc2ccc(-c3ccccc3)cc2)NC(=O)[C@H](C(C)C)NC(=O)[C@H](Cc2c[nH]c3ccccc23)NC(=O)[C@H](CC(=O)O)NC(=O)[C@H](Cc2ccc(OCC(=O)O)cc2)NC(=O)[C@H](C(C)O)NC(=O)CSC[C@@H](C(=O)N[C@H](CO)C(=O)NCC(=O)N[C@@H](CO)C(N)=O)NC(=O)[C@H](CO)NC(=O)[C@H](C(C)C)NC(=O)C(CC2CCCCC2)NC(=O)[C@H](CCN)NC(=O)[C@@H](CC(C)C)NC(=O)[C@H](C)N(C)C1=O` (stereo partly drawn) [Example 5006] ({CH2CO}-[Thr(3ξ)]Y(Carboxymethyl)DWV[Bip][Ile(3ξ)][NMeA][dL][Dab][ξCha]VSC[dS]GS-NH2; thioether N-14), the IC50 was 0.02 µM.

Same assay, conditions: Jurkat-hPD-1 cells, PE-labeled PD-L1-Ig 20 nM final; read-out: Jurkat HPDL1 PD1 IC50 (uM) (Method 1)

`CC(C)C[C@@H]1NC(=O)[C@H](Cc2c[nH]c3ccccc23)NC(=O)[C@H](CC(=O)O)NC(=O)[C@H](Cc2ccc(OCC(=O)O)cc2)NC(=O)[C@H](CC(N)=O)NC(=O)CSC[C@@H](C(=O)N[C@@H](C)C(N)=O)NC(=O)[C@H](CO)NC(=O)[C@H](C(C)C)NC(=O)[C@H](CC(C)C)NC(=O)[C@H](CC(N)=O)NC(=O)[C@@H](C)NC(=O)[C@H](C)N(C)C(=O)[C@H](C(C)C)NC(=O)[C@H](Cc2ccc(-c3ccccc3)cc2)NC1=O` [Compound 1769] ({CH2CO}-NY(Carboxymethyl)DWL[Bip]V[NMeA][dA]NLVSCA-NH2; thioether N-14) and `CC(C)C[C@@H]1NC(=O)[C@H](Cc2c[nH]c3ccccc23)NC(=O)[C@H](CC(=O)O)NC(=O)[C@H](Cc2ccc(O)cc2)NC(=O)[C@H](CC(N)=O)NC(=O)CSC[C@@H](C(=O)N[C@@H](C)C(N)=O)NC(=O)[C@H](CO)NC(=O)[C@H](C(C)C)NC(=O)[C@H](CC(C)C)NC(=O)[C@H](CC(N)=O)NC(=O)[C@@H](C)NC(=O)[C@H](C)N(C)C(=O)[C@H](C(C)C)NC(=O)[C@H](Cc2ccc(-c3ccccc3)cc2)NC1=O` [Compound 1762] ({CH2CO}-NYDWL[Bip]V[NMeA][dA]NLVSCA-NH2; thioether N-14) are the same in IC50: 0.04 µM for the first, 0.04 µM for the second.

First: Cc1cccc(C[C@@H]2NC(=O)[C@H](CC(=O)O)NC(=O)[C@H](Cc3ccc(OCC(=O)O)cc3)NC(=O)C(Cc3ccncc3)NC(=O)CSC[C@@H](C(=O)NC3(C(N)=O)CC3)NC(=O)[C@H](CO)NC(=O)[C@H](C(C)C)NC(=O)[C@H](CC3CCCCC3)NC(=O)[C@H](CCN)NC(=O)[C@@H](CC(C)C)NC(=O)[C@H](C)N(C)C(=O)[C@H](Cc3ccc(OCC(=O)O)cc3)NC(=O)[C@H](Cc3ccc(-c4ccccc4)cc3)NC(=O)[C@H](Cc3ccc(OCC(=O)O)cc3)NC2=O)c1 (stereo partly drawn) [Compound 1863] ({CH2CO}-[ξ4Pal]Y(Carboxymethyl)D[Phe(3-Me)]Y(Carboxymethyl)[Bip]Y(Carboxymethyl)[NMeA][dL][Dab][Cha]VSC[Ac3c]-NH2; thioether N-14)
Second: Cc1cccc(C[C@@H]2NC(=O)[C@H](CC(=O)O)NC(=O)[C@H](Cc3ccc(OCC(=O)O)cc3)NC(=O)[C@H](C(C)O)NC(=O)CSC[C@@H](C(=O)N[C@H](CCN)C(N)=O)NC(=O)[C@H](C(C)(C)O)NC(=O)[C@H](C(C)C)NC(=O)[C@H](CC3CCCCC3)NC(=O)[C@H](CCN)NC(=O)[C@@H](CC(C)C)NC(=O)[C@H](C)N(C)C(=O)[C@H](Cc3ccc(OCC(=O)O)cc3)NC(=O)[C@H](Cc3ccc(-c4ccccc4)cc3)NC(=O)[C@H](Cc3ccc(C(=O)O)cc3)NC2=O)c1 (stereo partly drawn) [Compound 2156] ({CH2CO}-[Thr(3ξ)]Y(Carboxymethyl)D[Phe(3-Me)][Phe(4-COOH)][Bip]Y(Carboxymethyl)[NMeA][dL][Dab][Cha]V[Val(3-OH)]C[dDab]-NH2; thioether N-14)
The IC50 of the first is 12-fold lower: 0.01 µM for the first, 0.12 µM for the second.

First: CCC(C)[C@@H]1NC(=O)[C@H](Cc2ccc(-c3ccccc3)cc2)NC(=O)[C@H](C(C)C)NC(=O)[C@H](Cc2c[nH]c3ccccc23)NC(=O)[C@H](CC(=O)O)NC(=O)[C@H](Cc2ccc(O)cc2)NC(=O)[C@H](CC(N)=O)NC(=O)CSC[C@@H](C(=O)N[C@@H](C)C(N)=O)NC(=O)[C@H](C(C)O)NC(=O)[C@H](C(C)C)NC(=O)[C@H](CC(C)C)NC(=O)[C@H](CCN)NC(=O)[C@@H](CC(C)C)NC(=O)[C@H](C)N(C)C1=O (stereo partly drawn) [Compound 2040] ({CH2CO}-NYDWV[Bip][Ile(3ξ)][NMeA][dL][Dab]LV[Thr(3ξ)]CA-NH2; thioether N-14)
Second: CC(C)C[C@@H]1NC(=O)[C@H](CCN)NC(=O)[C@@H](CC(C)C)NC(=O)[C@H](C)N(C)C(=O)[C@H](CCCN)NC(=O)[C@H](Cc2ccc(-c3ccccc3)cc2)NC(=O)[C@H](C(C)C)NC(=O)[C@H](Cc2c[nH]c3ccccc23)NC(=O)[C@H](CC(=O)O)NC(=O)[C@H](Cc2ccc(O)cc2)NC(=O)[C@H](CC(N)=O)NC(=O)CSC[C@@H](C(=O)N[C@@H](C)C(N)=O)NC(=O)[C@H]([C@@H](C)O)NC(=O)[C@H](C(C)C)NC1=O [Compound 1266] ({CH2CO}-NYDWV[Bip][Orn][NMeA][dL][Dab]LVTCA-NH2; thioether N-14)
The IC50 of the first is 1.7-fold higher: 0.05 µM for the first, 0.03 µM for the second. The second is the more potent here.

First: CC(C)C[C@@H]1NC(=O)[C@H](CCN)NC(=O)[C@@H](CC(C)C)NC(=O)[C@H](C)N(C)C(=O)[C@H](CCCNC(N)=O)NC(=O)[C@H](Cc2ccc(-c3ccccc3)cc2)NC(=O)[C@H](C(C)C)NC(=O)[C@H](Cc2c[nH]c3ccccc23)NC(=O)[C@H](CC(=O)O)NC(=O)[C@H](Cc2ccc(OCC(=O)O)cc2)NC(=O)[C@H](CC(N)=O)NC(=O)CSC[C@@H](C(=O)N[C@@H](C)C(N)=O)NC(=O)[C@H]([C@@H](C)O)NC(=O)[C@H](C(C)C)NC1=O [Compound 1321] ({CH2CO}-NY(Carboxymethyl)DWV[Bip][Cit][NMeA][dL][Dab]LVTCA-NH2; thioether N-14)
Second: CC(C)C[C@@H]1NC(=O)[C@H](CCN)NC(=O)[C@@H](CC(C)C)NC(=O)[C@H](C)N(C)C(=O)[C@H](CCCNC(N)=O)NC(=O)[C@H](Cc2ccc(-c3ccccc3)cc2)NC(=O)[C@H](C(C)C)NC(=O)[C@H](Cc2c[nH]c3ccccc23)NC(=O)[C@H](CC(=O)O)NC(=O)[C@H](Cc2ccc(O)cc2)NC(=O)[C@H](CN)NC(=O)CSC[C@@H](C(=O)N[C@@H](C)C(N)=O)NC(=O)[C@H]([C@@H](C)O)NC(=O)[C@H](C(C)C)NC1=O [Compound 1345] ({CH2CO}-[Dap]YDWV[Bip][Cit][NMeA][dL][Dab]LVTCA-NH2; thioether N-14)
The IC50 of the first is 8-fold higher: 0.08 µM for the first, 0.01 µM for the second.

First: CCNC(=O)[C@H](CCN)NC(=O)[C@@H]1CSCC(=O)N[C@@H](Cc2cccs2)C(=O)N[C@@H](Cc2cccc(C#N)c2)C(=O)N[C@@H](CC(=O)O)C(=O)N[C@@H](Cc2cccc(C)c2)C(=O)N[C@@H](Cc2cccc(F)c2)C(=O)N[C@@H](Cc2ccc(-c3ccccc3)cc2)C(=O)N[C@@H](Cc2ccc(OCC(=O)O)cc2)C(=O)N(C)[C@@H](C)C(=O)N[C@H](CC(C)C)C(=O)N[C@@H](CCN)C(=O)N[C@@H](CC2CCCCC2)C(=O)N[C@@H](C(C)(C)O)C(=O)N[C@@H](CO)C(=O)N1 [Compound 1841] ({CH2CO}-[2Thi][Phe(3-CN)]D[Phe(3-Me)][Phe(3-F)][Bip]Y(Carboxymethyl)[NMeA][dL][Dab][Cha][Val(3-OH)]SC[Dab]-NHEt; thioether N-14)
Second: CC(C)C[C@@H]1NC(=O)[C@H](Cc2c[nH]c3ccccc23)NC(=O)[C@H](CC(=O)O)NC(=O)[C@H](Cc2ccc(C(=O)O)cc2)NC(=O)[C@H](Cc2ccc(OCC(=O)O)cc2)NC(=O)CSC[C@@H](C(N)=O)NC(=O)[C@H](CO)NC(=O)[C@H](C(C)C)NC(=O)[C@H](CC2CCCCC2)NC(=O)[C@H](CCN)NC(=O)[C@@H](CC(C)C)NC(=O)[C@H](C)N(C)C(=O)[C@H](CCCNC(N)=O)NC(=O)[C@H](Cc2ccc(-c3ccccc3)cc2)NC1=O [Compound 1636] ({CH2CO}-Y(Carboxymethyl)[Phe(4-COOH)]DWL[Bip][Cit][NMeA][dL][Dab][Cha]VSC-NH2; thioether N-14)
The IC50 of the first is 2-fold higher: 0.02 µM for the first, 0.01 µM for the second. The second is the more potent here.

First: CC(C)C[C@H]1NC(=O)[C@H](C)N(C)C(=O)[C@H](C(C)C)NC(=O)[C@H](Cc2ccc(-c3ccccc3)cc2)NC(=O)[C@H](C(C)C)NC(=O)[C@H](Cc2c[nH]c3ccccc23)NC(=O)[C@H](CC(=O)O)NC(=O)[C@H](Cc2ccc(O)cc2)NC(=O)[C@H](CN)NC(=O)CSC[C@@H](C(=O)N[C@@H](C)C(N)=O)NC(=O)[C@H]([C@@H](C)O)NC(=O)[C@H](C(C)C)NC(=O)[C@H](CC2CCCCC2)NC(=O)[C@H](CCN)NC1=O [Compound 1506] ({CH2CO}-[Dap]YDWV[Bip]V[NMeA][dL][Dab][Cha]VTCA-NH2; thioether N-14)
Second: CC(C)C[C@@H]1NC(=O)[C@H](CCN)NC(=O)[C@@H](CC(C)C)NC(=O)[C@H](C)N(C)C(=O)[C@H](CCCNC(N)=O)NC(=O)[C@H](Cc2ccc(-c3ccccc3)cc2)NC(=O)[C@H](C(C)C)NC(=O)[C@H](Cc2c[nH]c3ccccc23)NC(=O)[C@H](CC(=O)O)NC(=O)[C@H](Cc2ccc(O)cc2)NC(=O)[C@H](CCN)NC(=O)CSC[C@@H](C(=O)N[C@@H](C)C(N)=O)NC(=O)[C@H]([C@@H](C)O)NC(=O)[C@H](C(C)C)NC1=O [Compound 1346] ({CH2CO}-[Dab]YDWV[Bip][Cit][NMeA][dL][Dab]LVTCA-NH2; thioether N-14)
The IC50 of the first is 3.5-fold lower: 0.02 µM for the first, 0.07 µM for the second. The first is the more potent here.

`CCC(C)[C@@H]1NC(=O)[C@H](Cc2ccc(-c3ccccc3)cc2)NC(=O)[C@H](C(C)C)NC(=O)[C@H](Cc2c[nH]c3ccccc23)NC(=O)[C@H](CC(=O)O)NC(=O)[C@H](Cc2ccc(O)cc2)NC(=O)[C@H](C(C)O)NC(=O)CSC[C@@H](C(=O)NCCCN)NC(=O)[C@H](C(C)O)NC(=O)[C@H](C(C)(C)O)NC(=O)[C@H](CC2CCCCC2)NC(=O)[C@H](CC(N)=O)NC(=O)[C@@H](CC(C)C)NC(=O)[C@H](C)N(C)C1=O` (stereo partly drawn) [Compound 2266] ({CH2CO}-[Thr(3ξ)]YDWV[Bip][Ile(3ξ)][NMeA][dL]N[Cha][Val(3-OH)][Thr(3ξ)]C-{NH(CH2)3NH2}; thioether N-14) gave an IC50 of 0.15 µM.
